Experiments:
[1] = biological target: T1, POZ53557 (pre-1 FDBR) (Methylovulum psychrotolerans, UniProt A0A2S5CS30); assay: coexpression in E. coli with HO and Cph1 reporter; bilin identified on reporter; format: cell-based; conditions: E. coli coexpression with HO POZ53545; inefficient reduction to PΦB
T1 construct: gene pcyA; replaces alt-PcyA in plasmid Spam-545/alt557, coexpressed in E. coli with HO and Cph1 reporter; not purified
T1 sequence (A0A2S5CS30 1-228): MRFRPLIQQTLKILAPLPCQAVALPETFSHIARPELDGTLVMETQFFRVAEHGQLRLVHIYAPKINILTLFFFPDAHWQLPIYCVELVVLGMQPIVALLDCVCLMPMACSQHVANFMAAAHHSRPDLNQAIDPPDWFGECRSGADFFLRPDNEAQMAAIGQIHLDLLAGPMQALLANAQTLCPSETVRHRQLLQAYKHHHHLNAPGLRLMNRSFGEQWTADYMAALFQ

[2] = biological target: T2, POZ53552 (BBAG-1) (Methylovulum psychrotolerans, UniProt A0A2S5CS40); assay: absorption of purified holoprotein; format: binding; conditions: covalent (CXRD motif); coexpressed with HO POZ53545 alone (Spam-545xc); poor chromophorylation
T2 construct: gene AADEFJLK_00580; synthetic gene in pET28 (pET28-RcaE backbone); coexpressed in E. coli with bilin biosynthesis plasmid; CXRD motif
T2 sequence (A0A2S5CS40 1-198): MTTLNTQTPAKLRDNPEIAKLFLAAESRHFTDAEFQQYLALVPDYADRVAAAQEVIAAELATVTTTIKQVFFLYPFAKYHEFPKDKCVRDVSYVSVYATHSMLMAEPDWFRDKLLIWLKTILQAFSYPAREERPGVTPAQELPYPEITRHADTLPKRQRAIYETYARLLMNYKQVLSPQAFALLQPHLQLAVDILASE

[3] = biological target: T3, CAP_1521 (BBAG-2) (Chondromyces apiculatus, UniProt A0A017TC46); assay: absorption of purified holoprotein, acid denaturation, CD; format: binding; conditions: covalent adduct; coexpressed in E. coli with HO POZ53545 and CAP_1520; 25 °C
T3 construct: coexpressed in E. coli with bilin biosynthesis plasmid
T3 sequence (A0A017TC46 1-259): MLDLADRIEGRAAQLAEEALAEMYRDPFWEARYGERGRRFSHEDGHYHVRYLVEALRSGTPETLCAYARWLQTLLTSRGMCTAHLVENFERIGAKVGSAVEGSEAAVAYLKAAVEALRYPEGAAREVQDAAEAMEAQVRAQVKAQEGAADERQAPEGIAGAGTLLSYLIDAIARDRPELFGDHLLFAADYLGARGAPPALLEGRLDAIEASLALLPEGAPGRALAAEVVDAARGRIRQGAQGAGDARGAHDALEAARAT

[4] = biological target: T4, Cph1 (N514 truncation) (Synechocystis sp. PCC 6803, UniProt Q55168); assay: absorption, photoconversion, acid denaturation; format: binding; conditions: covalent adduct
T4 construct: N514 truncation construct sufficient for photoconversion, His-tagged, E. coli
T4 sequence (Q55168 1-514): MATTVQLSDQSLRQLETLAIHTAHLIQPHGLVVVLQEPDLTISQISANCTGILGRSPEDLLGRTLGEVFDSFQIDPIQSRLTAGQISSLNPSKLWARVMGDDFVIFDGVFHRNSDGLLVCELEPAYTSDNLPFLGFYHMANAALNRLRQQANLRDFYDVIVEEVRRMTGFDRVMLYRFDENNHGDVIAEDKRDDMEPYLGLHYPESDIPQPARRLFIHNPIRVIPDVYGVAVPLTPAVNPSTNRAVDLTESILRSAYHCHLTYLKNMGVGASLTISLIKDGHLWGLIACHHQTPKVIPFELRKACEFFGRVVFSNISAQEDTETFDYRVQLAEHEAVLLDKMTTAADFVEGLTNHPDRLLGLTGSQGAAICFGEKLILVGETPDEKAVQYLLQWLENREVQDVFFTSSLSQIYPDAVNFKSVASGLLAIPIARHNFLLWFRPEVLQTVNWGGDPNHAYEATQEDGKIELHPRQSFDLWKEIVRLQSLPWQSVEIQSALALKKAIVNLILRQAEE

[5] = biological target: T2, POZ53552 (BBAG-1); assay: absorption of purified holoprotein, acid denaturation; format: binding; conditions: covalent (CXRD motif)

Question: How did the “coexpression in E. coli with HO and Cph1 reporter; bilin identified on reporter” value [1] turn out when C=CC1=C(C)C(=Cc2[nH]c(C=C3N=C(C=C4NC(=O)C(C)=C4C=C)C(C)=C3CCC(=O)O)c(CCC(=O)O)c2C)NC1=O [BV] was run?
Answer: POZ53557 appears to carry out inefficient reduction of BV to PΦB

Question: And the “absorption of purified holoprotein” value [2]?
Answer: POZ53545 with no FDBR (synthesizing BV; plasmid Spam-545xc

Question: What about the “absorption of purified holoprotein, acid denaturation, CD” value [3] of the same compound?
Answer: Acid denaturation demonstrated that both possessed BV adducts rather than PΦB adducts

Question: With C=CC1=C(C)C(=CC2=NC(=Cc3[nH]c(C=C4NC(=O)C(C)C4=CC)c(C)c3CCC(=O)O)C(CCC(=O)O)=C2C)NC1=O (stereo not shown) [PΦB] as the compound, how does the “absorption, photoconversion, acid denaturation” value ([4]; coexpressed with Spam-545/CAP) read?
Answer: confirmed that this preparation contained a PΦB chromophore

Question: And the “absorption of purified holoprotein, acid denaturation” value ([5]; coexpressed with Spam-545/CAP, poor chromophorylation)?
Answer: BBAG-1 POZ53552 incorporated PΦB when coexpressed with Spam-545/CAP

Question: Which “absorption, photoconversion, acid denaturation” value ([4]; coexpressed with Spam-545/8304, photoinactive population of mixed preparation) does the source give for C=CC1=C(C)C(CC2=NC(=Cc3[nH]c(C=C4NC(=O)C(C)C4=CC)c(C)c3CCC(=O)O)C(CCC(=O)O)=C2C)NC1=O (stereo not shown) [PEB] here?
Answer: The photoinactive pink population was consistent with the known properties of the PEB adduct

Question: What about the “absorption of purified holoprotein, acid denaturation” value ([5]; coexpressed with Spam-545/8304, mixture of PΦB and PEB adducts) of the same compound?
Answer: Denaturation analysis confirmed that these peaks reflected a mixture of PΦB and PEB
